The source of these data is US20210395327A1, “Growth Hormone-Releasing Hormone Antagonists and Uses Thereof” (United States Government As Represented By The Department …, priority 2019, published 2021).

Structures are written as SMILES. “Also recorded” adds a separate entry of the source. Non-standard residues stand in square brackets, D forms with d. Residues, ends and D or L forms follow the SMILES beside them. *: point of attachment. Phe(F5) = N[C@@H](Cc1c(F)c(F)c(F)c(F)c1F)C(=O)O; hArg = N=C(N)NCCCC[C@H](N)C(=O)O; 12Ado = NCCCCCCCCCCCC(=O)O; Nle = CCCC[C@H](N)C(=O)O; Orn = NCCC[C@H](N)C(=O)O; Abu = CC[C@H](N)C(=O)O; PhAc = O=C(Cc1ccccc1)*

The test system of test [1] is RT4 urothelial cancer cells. In words: In vitro cell viability, RT4. It counts as cell-based, human. The following applies: antagonist 5 μM for 72 h, cell proliferation assay; MIA602 = 1. The method, then: (§1) The inhibitory effects of the various synthesized GHRH antagonists were tested in cell proliferation assays in various human cancer cell lines including stomach cancer (KATOIII, N87), colon cancer (HT-29), urothelial cancer (J82, RT4), pancreatic cancer (PANC-1, CFPAC-1), prostatic cancer (PC3), breast cancer (MX-1, HCC1806), ovarian cancer (SK-OV-3, OVCAR-3) and lung cancer (HCC827, H460).
(§2) Cell culture. Human cancer cell lines including pancreatic (PANC-1 and CFPAC-1), lung (HCC827 and H460), stomach (NCI-N87 and KATOIII), urothelial (J82, RT4), prostatic (PC3), breast (MX-1 and HCC 1806), colorectal (HT-29), and ovarian (SK-OV-3 and OVCAR-3) were obtained from the American Type Culture Collection (ATCC) and cultured at 37° C. in a humidified 95% air/5% CO2 atmosphere in the medium recommended by ATCC.
(§3) In vitro cell viability. Cell viability was analyzed as follows: cancer cells including pancreatic (PANC-1 and CFPAC-1), lung (HCC827 and H460), stomach (NCI-N87 and KATOIII), urothelial (J82, RT4), prostatic (PC3) and breast (MX-1 and HCC 1806), colorectal (HT-29) and ovarian (SK-OV-3 and OVCAR-3) were grown on 96 well plates to ˜60% confluence, the cells were starved for 24 h in culture medium containing 0.5% FBS. Cells were then treated with GHRH antagonists MIA602 AVR compounds at concentrations of 1, 2.5 or 5 μM, or vehicle (0.1% DMSO) in quintuplicates for 72 hours. The medium was replaced every 48 hours. Cell viability was measured using CellTiter 96 aqueous one solution kit (Promega). Inhibitory effects of tested AVR compounds in comparison to that of MIA602 are presented as inhibitory potency.
(§4) Inhibitory effects of selected AVR compounds in comparison to that of MIA602 are presented as inhibitory potency (e.g., percentage of inhibition). […] The cell lines tested including lung cancer HCC827 (FIG. 2A), pancreatic cancer CFPAC-1 (FIG. 2B), stomach cancer N87 (FIG. 2C), colon cancer HT-29 (FIG. 2D), breast cancers MX-1 and HCC1806 (FIGS. 2 E, F). […]

For test [2], the system named is mouse lung fibroblasts (Mlg 2908). In words: Cellular respiration, Seahorse XF Cell Mito Stress Test. In kind it is cell-based. The method, then:
(§5) Lung fibroblasts. Newborn mouse lung fibroblasts (Mlg 2908) were obtained from the American Type Culture Collection, Manassas, Va. and cultured in Eagle's minimal essential medium. Cells were grown in 6-well plates before incubation with 1 or 5 μM MIA-602 or vehicle, RNA isolation, and oxygen consumption measurements.
Cellular respiration. The effects of MIA-602 on mouse lung fibroblast oxygen consumption was measured using the Agilent Seahorse XF Cell Mito Stress Test (Agilent Technologies, Santa Clara, Calif.) (Divakaruni A, Paradyse A, Ferrick D, Murphy A, Jastroch M (2014). Methods in Enzymology 547:309-354). Fibroblasts were incubated with vehicle, 1 or 5 μM MIA-602 for 24 hours before measurement of oxygen consumption. One day before assay 80,000 fibroblasts were seeded into Seahorse 24-well plates (n=6 wells per condition). Basal respiration was established and oligomycin, FCCP and rotenone plus antimycin A were added sequentially to measure ATP production, uncoupled respiration; and, non-mitochondrial oxygen consumption (Wangpaichitr, Wu C, Li Y, Nguyen D, Kandemir H, Shah S, Chen S, Feun L, Prince J, Kuo M, Savaraj N (2017). Oncotarget 8(30):49275-49292).

Test [3] deals with PC3 prostatic cancer cells. In words: In vitro cell viability, PC3. In kind it is cell-based, human. The following applies: antagonist 5 μM for 72 h, cell proliferation assay; MIA602 = 1. How it is done: as §1, §2, §3, §4
In test [4] the test system is PAK1-STAT3/NF-κB in gastric cancer cells. The following applies: Gan et al. 2016; cited from earlier work.
Test [5] concerns cellular levels of oxidant stress. The note with it: Barbutis and Schally 2008; cited from earlier work.
For test [6], the system named is mouse lung fibroblasts (Mlg 2908). In words: Annexin V-propidium iodide assay of lung fibroblasts. The following applies: 24 hours, annexin-V/PI. It counts as cell-based. The method, then:
as §5
Annexin V-propidium iodide assay. Apoptosis and necrosis were assessed with annexin-V/propidium iodide staining (Annexin V: FITC Assay Kit, Bio Rad, Hercules, Calif. 94547) of lung fibroblasts incubated in 0, 1 or 5 μM MIA-602 for 24 hours (Rieger A, Nelson K, Konowalchuk J, Barreda D. (2011). J Visualized Experiments 50:e2597). Culture medium and trypsinized cells were collected and centrifuged at 400×g for 5 minutes. The pellet was resuspended in 100 μL annexin-V/propidium iodide. The suspension was incubated at 37° C. for 20 minutes, then washed with PBS and resuspended in 500 μL PBS and fluorescence quantified by Beckman Coulter Life Sciences CytoFLEX benchtop flow cytometer (Beckman Coulter, Inc., Brea, Calif.).

Regarding `CCCC[C@H](NC(=O)[C@@H](NC(=O)[C@H](CC(=O)O)NC(=O)[C@H](CCC(N)=O)NC(=O)[C@H](CC(C)C)NC(=O)[C@H](CC(C)C)NC(=O)[C@H](CCCN)NC(=O)[C@H](Cc1c[nH]cn1)NC(=O)[C@H](C)NC(=O)[C@H](CO)NC(=O)[C@H](CC(C)C)NC(=O)[C@H](CCC(N)=O)NC(=O)[C@H](CC)NC(=O)[C@H](CC(C)C)NC(=O)[C@@H](NC(=O)[C@H](CCCN)NC(=O)[C@H](Cc1c[nH]cn1)NC(=O)[C@H](Cc1ccc(OC)cc1)NC(=O)[C@H](CCCCNC(=N)N)NC(=O)[C@H](C)NC(=O)[C@@H](NC(=O)[C@H](Cc1c(F)c(F)c(F)c(F)c1F)NC(=O)[C@@H](NC(=O)[C@H](C)NC(=O)[C@H](CC(=O)O)NC(=O)[C@@H](CCCNC(=N)N)NC(=O)[C@H](Cc1ccc(O)cc1)NC(=O)CCCCCCCCCCCNC(=O)Cc1ccccc1)[C@@H](C)CC)[C@@H](C)O)C(C)C)[C@@H](C)CC)C(=O)N[C@H](CCCNC(=N)N)C(=O)N[C@@H](CCCCNC(=N)N)C(N)=O` [MIA-602, PhAC-Ada, Tyr D-Arg, Asp, Ala, Ile, 5FPhe, Thr, Ala, Har, Tyr(Me), His, Orn, Val, Leu, Abu, Gin, Leu, Ser, Ala, His, Om, Leu, Leu, Gin, Asp, Ile; Nle, D-Arg, Har NH2, reference compound] ({PhAc-12Ado}-Y[dR]DAI[Phe(F5)]TA[hArg]Y(Me)H[Orn]VL[Abu]QLSAH[Orn]LLQDI[Nle][dR][hArg]-NH2), the “relative inhibitory potency in comparison to MIA-602, Urothelial RT4” value in test [1] stood at 1. In test [2] (5 μM for 24 hours, vs vehicle), the “basal respiration / basal oxygen consumption (in words)” value is “increased”; the “maximal, uncoupled respiration (after FCCP) (in words)” value is reported as “increased”; the “spare respiratory capacity (in words)” value is on record as “increased”. In addition, in test [2] (1 and 5 μM for 24 hours), the “non-mitochondrial respiration (after antimycin A and rotenone) (in words)” value is given as “appeared to increase”. Moreover, the “relative inhibitory potency in comparison to MIA-602, Prostatic PC3” value in test [3] is 1. In addition, the “signaling pathways in gastric cancer cells (in words)” value in test [4] was “downregulates p21 activated kinase and STAT3 and NFκB; also recorded: inhibits signaling pathways, including PAK1-STAT3/NF-κB”. For the same molecule, the “cellular levels of oxidant stress (in words)” value in test [5] was “decreased”. The same molecule yielded a cytolytic cell death in test [6] (1 μM) of 9.3±1.1%. In addition, the cytolytic cell death in test [6] (5 μM) worked out at 34.9±2.5%.
